{"source": "patent US6872834B2", "about": "“Phenyl-substituted indoles and indazoles” (Ortho-McNeil Pharmaceutical, Inc., priority 2000, dated 2005)", "note": "pKi: −log10 of the molar value.", "data": [{"target": "T1, histamine H3 receptor (Homo sapiens, UniProt Q9Y5N1)", "T1 construct": "expressed in transfected cells; membranes", "T1 sequence (Q9Y5N1 whole entry)": "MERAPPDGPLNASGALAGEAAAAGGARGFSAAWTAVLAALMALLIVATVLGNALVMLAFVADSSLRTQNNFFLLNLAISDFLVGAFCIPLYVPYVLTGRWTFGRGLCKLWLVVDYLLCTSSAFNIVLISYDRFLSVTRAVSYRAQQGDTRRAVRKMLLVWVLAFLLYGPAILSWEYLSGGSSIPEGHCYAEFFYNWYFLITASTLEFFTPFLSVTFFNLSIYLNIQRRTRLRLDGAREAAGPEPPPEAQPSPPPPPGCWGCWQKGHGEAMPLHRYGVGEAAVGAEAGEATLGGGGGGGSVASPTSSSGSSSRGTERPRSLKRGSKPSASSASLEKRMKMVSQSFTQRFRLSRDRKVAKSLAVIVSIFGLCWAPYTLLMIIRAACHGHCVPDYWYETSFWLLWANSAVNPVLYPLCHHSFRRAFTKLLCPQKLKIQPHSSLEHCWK", "assay": "[3H]-N-methylhistamine binding", "conditions": "membranes from histamine H3 receptor-expressing SK-N-MC cells; 0.8 nM [3H]-N-methylhistamine; 45 minutes at 25° C.", "description": "1(A) Transfection of Cells with Human Histamine Receptor\nA 10 cm tissue culture dish with a confluent monolayer of SK-N-MC cells was split two days prior to transfection. Using sterile technique the media was removed and the cells were detached from the dish by the addition of trypsin. One fifth of the cells were then placed onto a new 10 cm dish. Cells were grown in a 37° C. incubator with 5% CO2 in Minimal Essential Media Eagle with 10% Fetal Bovine Serum. After two days cells were approximately 80% confluent. These were removed from the dish with trypsin and pelleted in a clinical centrifuge. […] One μg supercoiled H3 receptor cDNA was added to the cells and mixed. The voltage for the electroporation was set at 0.25 kV, the capacitance is set at 960 μF.\nAfter electroporation the cells were diluted into 10 mL complete media and plated onto four 10 cm dishes. Due to the variability in the efficiency of electroporation, four different concentrations of cells were plated. The ratios used were: 1:20, 1:10, and 1:5, with the remainder of the cells being added to the fourth dish. The cells were allowed to recover for 24 hours before adding the selection media (complete media with 600 μg/ml G418). After 10 days dishes were analyzed for surviving colonies of cells. Dishes with well-isolated colonies were used. Cells from individual colonies were isolated and tested. SK-N-MC cells were used because they give efficient coupling for inhibition of adenylate cyclase. The clones that gave the most robust inhibition of adenylate cyclase in response to histamine were used for further study.\n1(B) [3H]-N-methylhistamine Binding\nCell pellets from histamine H3 receptor-expressing SK-N-MC cells were homogenized in 20 mM TrisHCl/0.5 mM EDTA. Supernatants from a 800 g spin were collected, reccentrifuged at 30,000 g for 30 minutes. Pellets were rehomogenized in 50 mM Tris/5 mM EDTA (pH 7.4). Membranes were incubated with 0.8 nM [^3H]-N-methylhistamine plus/minus test compounds for 45 minutes at 25° C. and harvested by rapid filtration over GF/C glass fiber filters (pretreated with 0.3% polyethylenimine) followed by four washes with ice cold buffer. Filters were dried, added to 4 mL scintillation cocktail and then counted on a liquid scintillation counter. Non-specific binding was defined with 10 μM histamine.", "values": [{"smiles": "CS(=O)(=O)n1c(-c2ccc(OCCCN3CCCCC3)cc2)cc2ccccc21", "note": "[Example 1, 2-[4-[3-Piperidinopropoxy]phenyl)-1-(methylsulfonyl)-1H-indole]", "pKi": 8.15}, {"smiles": "c1ccc2[nH]c(-c3ccc(OCCCN4CCCCC4)cc3)cc2c1", "note": "[Example 2, 2-[4-(3-Piperidinopropoxy]phenyl)-1H-indole]", "pKi": 7.32}, {"smiles": "CN1CCCC1CCOc1ccc(-c2cc3ccccc3n2S(C)(=O)=O)cc1", "note": "(centres unmarked) [Example 3, 2-[4-[2-[1-(methyl)-2-pyrrolidinyl]ethoxy]phenyl)-1-(methylsulfonyl)-1H-indole]", "pKi": 7.11}, {"smiles": "CN1CCCC1CCOc1ccc(-c2cc3ccccc3[nH]2)cc1", "note": "(centres unmarked) [Example 4, 2-[4-[2-[1-(methyl)-2-pyrrolidinyl]ethoxy]phenyl)-1H-indole]", "pKi": 7.00}, {"smiles": "CN1CCC(Oc2ccc(-c3cc4ccccc4n3S(C)(=O)=O)cc2)CC1", "note": "[Example 5, 2-[4-[1-(methyl)-4-piperidinyl]oxyphenyl]-1-(methylsulfonyl)-1H-indole]", "pKi": 6.97}, {"smiles": "CN1CCC(Oc2ccc(-c3cc4ccccc4[nH]3)cc2)CC1", "note": "[Example 6, 2-[4-[1-(methyl)-4-piperidinyl]oxyphenyl] 1H-indole]", "pKi": 6.41}, {"smiles": "CN(C)CCCOc1ccc(-c2cc3ccccc3n2S(C)(=O)=O)cc1", "note": "[Example 7, 2-[4-[3-Dimethylaminopropoxy]phenyl]-1-(methylsulfonyl)-1H-indole]", "pKi": 6.92}, {"smiles": "CN(C)CCCOc1ccc(-c2cc3ccccc3[nH]2)cc1", "note": "[Example 8, 2-[4-[3-Dimethylaminopropoxy]phenyl] 1H-indole]", "pKi": 6.30}, {"smiles": "CS(=O)(=O)n1c(-c2ccc(OCc3ccncc3)cc2)cc2ccccc21", "note": "[Example 9, 2-[4-[4-Pyridinyl]methoxyphenyl]-1-(methylsulfonyl)-1H-indole]", "pKi": 5.30}, {"smiles": "CCN(CC)CCOc1ccc(-c2cc3ccccc3n2S(C)(=O)=O)cc1", "note": "[Example 10, 2-[4-[2-Diethylaminoethoxy]phenyl]-1-(methylsulfonyl)-1H-indole]", "pKi": 6.43}, {"smiles": "CCN(CC)CCOc1ccc(-c2cc3ccccc3[nH]2)cc1", "note": "[Example 11, 2-[4-[2-Diethylaminoethoxy]phenyl]-1H-indole]", "pKi": 6.28}, {"smiles": "CS(=O)(=O)n1c(-c2cccc(OCCCN3CCCCC3)c2)cc2ccccc21", "note": "[Example 15, 2-[3-[3-Piperidinopropoxy]phenyl)-1-(methylsulfonyl)-1H-indole]", "pKi": 7.48}, {"smiles": "CN1CCN(CCCOc2ccc(-c3cc4ccccc4[nH]3)cc2)CC1", "note": "[Example 16, 2-(4-(3-(4-Methylpiperazino)propoxy)phenyl)indole]", "pKi": 5.70}, {"smiles": "CN1CCN(CCCOc2ccc(-c3cc4cc(Cl)ccc4n3S(C)(=O)=O)cc2)CC1", "note": "[Example 17]", "pKi": 5.52}]}]}
